We go through one compound from article PMC10765126, “High-throughput computational screening and in vitro evaluation identifies 5-(4-oxo-4H-3,1-benzoxazin-2-yl)-2-[3-(4-oxo-4H-3,1-benzoxazin-2-yl) phenyl]-1H-isoindole-1,3(2H)-dione (C3), as a novel EGFR—HER2 dual inhibitor in gastric tumors” (Oncology Research, 2023).

As a reminder, the IC50 is the point on the concentration scale where inhibition reaches its midpoint.

The target in one assay is EGFR (Homo sapiens, UniProt P00533, L858R/T790M). The experiment in a line: luminescence kinase assay (Kinase-Glo Max, BPS Bioscience EGFR (T790M/L858R) kit, […] ATP). In kind it is biochemical. In general terms: Kinase-Glo measures the ATP left after a reaction by luminescence.
The next assay deals with T1, HER2 (Homo sapiens, UniProt P04626).
T1 construct: gene ERBB2
Nature of the assay: luminescence kinase assay (Kinase-Glo Max, BPS Bioscience HER2 kit, […] ATP). The class given is biochemical.

Chain of EGFR (P00533 696-1210 T790M/L858R limits assumed): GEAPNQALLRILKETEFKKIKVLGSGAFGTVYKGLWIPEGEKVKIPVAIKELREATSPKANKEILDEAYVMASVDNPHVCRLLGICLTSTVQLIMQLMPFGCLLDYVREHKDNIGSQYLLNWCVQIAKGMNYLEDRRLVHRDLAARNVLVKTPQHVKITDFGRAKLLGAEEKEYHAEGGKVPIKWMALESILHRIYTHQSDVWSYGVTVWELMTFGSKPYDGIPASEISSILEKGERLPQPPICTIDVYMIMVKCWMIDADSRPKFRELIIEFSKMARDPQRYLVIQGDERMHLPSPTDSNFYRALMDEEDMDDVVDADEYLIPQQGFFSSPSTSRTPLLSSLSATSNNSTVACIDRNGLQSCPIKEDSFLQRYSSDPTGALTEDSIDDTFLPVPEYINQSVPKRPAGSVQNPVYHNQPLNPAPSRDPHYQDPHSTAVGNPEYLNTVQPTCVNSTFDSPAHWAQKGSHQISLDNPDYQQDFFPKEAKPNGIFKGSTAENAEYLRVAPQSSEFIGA
T1 sequence (P04626 23-1255): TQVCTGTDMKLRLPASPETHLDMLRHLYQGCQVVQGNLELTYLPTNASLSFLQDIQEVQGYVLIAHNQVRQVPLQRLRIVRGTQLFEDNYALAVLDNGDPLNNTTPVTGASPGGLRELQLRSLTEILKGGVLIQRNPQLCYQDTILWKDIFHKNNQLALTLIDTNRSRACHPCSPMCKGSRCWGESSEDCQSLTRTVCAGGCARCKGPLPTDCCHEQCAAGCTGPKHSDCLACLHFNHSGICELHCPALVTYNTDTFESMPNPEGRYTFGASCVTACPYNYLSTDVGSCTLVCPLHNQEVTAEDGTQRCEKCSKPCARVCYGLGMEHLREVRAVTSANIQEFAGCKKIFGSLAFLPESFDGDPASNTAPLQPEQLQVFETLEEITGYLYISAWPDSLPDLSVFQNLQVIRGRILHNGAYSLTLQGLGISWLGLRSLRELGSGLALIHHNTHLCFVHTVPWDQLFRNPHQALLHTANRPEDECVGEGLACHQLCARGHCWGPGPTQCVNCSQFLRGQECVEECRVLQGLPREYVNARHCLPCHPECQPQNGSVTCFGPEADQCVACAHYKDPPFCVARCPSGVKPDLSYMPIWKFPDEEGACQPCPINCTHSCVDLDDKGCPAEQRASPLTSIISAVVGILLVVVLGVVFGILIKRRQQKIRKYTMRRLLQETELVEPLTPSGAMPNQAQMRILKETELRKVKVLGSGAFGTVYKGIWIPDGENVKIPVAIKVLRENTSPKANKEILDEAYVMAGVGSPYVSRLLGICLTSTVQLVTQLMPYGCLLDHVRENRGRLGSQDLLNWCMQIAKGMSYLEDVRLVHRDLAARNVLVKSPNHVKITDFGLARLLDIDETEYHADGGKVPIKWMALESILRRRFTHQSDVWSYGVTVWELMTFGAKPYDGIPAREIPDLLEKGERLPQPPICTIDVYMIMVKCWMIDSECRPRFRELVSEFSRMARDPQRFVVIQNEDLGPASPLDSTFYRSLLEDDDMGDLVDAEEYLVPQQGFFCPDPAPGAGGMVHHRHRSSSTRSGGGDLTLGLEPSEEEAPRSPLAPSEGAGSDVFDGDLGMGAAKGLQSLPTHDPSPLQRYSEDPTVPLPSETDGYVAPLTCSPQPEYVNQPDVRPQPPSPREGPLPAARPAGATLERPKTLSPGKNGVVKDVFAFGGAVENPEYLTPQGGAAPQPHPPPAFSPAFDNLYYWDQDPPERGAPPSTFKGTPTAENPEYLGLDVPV

For `O=C1c2ccc(-c3nc4ccccc4c(=O)o3)cc2C(=O)N1c1cccc(-c2nc3ccccc3c(=O)o2)c1` [C3, 5-(4-oxo-4H-3,1-benzoxazin-2-yl)-2-[3-(4-oxo-4H-3,1-benzoxazin-2-yl)phenyl]-1H-isoindole-1,3(2H)-dione], the results for the IC50 on EGFR and against HER2 were 37.2 nM and 45.8 nM, respectively.
